Assay results taken from ChEMBL document CHEMBL4229404, “Druggability Assessment of Targets Used in Kinetic Target-Guided Synthesis” (J Med Chem, 2018).

Experiments:
[1] = target: T1, Bifunctional ligase/repressor BirA (Staphylococcus aureus, UniProt A0A0E7NXW5); assay: Inhibition of Staphylococcus aureus biotin protein ligase by LC/MS-SIM analysis
T1 sequence (A0A0E7NXW5 whole entry): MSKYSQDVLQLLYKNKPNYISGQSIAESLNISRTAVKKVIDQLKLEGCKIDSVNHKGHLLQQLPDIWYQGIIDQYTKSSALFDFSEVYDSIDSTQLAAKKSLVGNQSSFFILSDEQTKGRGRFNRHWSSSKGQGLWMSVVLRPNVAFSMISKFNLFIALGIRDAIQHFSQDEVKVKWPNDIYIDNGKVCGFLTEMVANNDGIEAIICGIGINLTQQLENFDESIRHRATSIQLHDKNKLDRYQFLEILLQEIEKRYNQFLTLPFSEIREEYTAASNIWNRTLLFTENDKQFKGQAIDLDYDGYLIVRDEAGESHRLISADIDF

Acetylcholinesterase = Acetylcholinesterase (Electrophorus electricus, UniProt O42275)
Chain of Acetylcholinesterase (O42275 whole entry): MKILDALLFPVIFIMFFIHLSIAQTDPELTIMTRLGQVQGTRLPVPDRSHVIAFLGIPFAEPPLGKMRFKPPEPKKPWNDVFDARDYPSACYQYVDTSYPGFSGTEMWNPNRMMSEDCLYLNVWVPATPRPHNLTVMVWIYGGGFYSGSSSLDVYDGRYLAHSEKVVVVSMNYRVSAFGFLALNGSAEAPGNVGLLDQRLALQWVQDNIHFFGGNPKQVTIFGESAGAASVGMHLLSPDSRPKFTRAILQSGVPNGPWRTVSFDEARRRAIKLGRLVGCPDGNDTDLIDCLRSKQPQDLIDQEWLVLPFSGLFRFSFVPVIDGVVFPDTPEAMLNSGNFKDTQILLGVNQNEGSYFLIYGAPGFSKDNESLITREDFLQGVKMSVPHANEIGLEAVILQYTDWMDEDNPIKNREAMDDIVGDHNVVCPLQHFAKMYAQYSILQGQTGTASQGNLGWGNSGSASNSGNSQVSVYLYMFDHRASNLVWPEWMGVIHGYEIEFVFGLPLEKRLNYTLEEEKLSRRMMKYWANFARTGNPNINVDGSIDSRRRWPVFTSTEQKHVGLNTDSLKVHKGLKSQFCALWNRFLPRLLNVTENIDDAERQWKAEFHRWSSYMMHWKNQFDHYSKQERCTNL
Description: Binding affinity to electric eel AChE after 24 hrs by LC/MS-SIM analysis

Carbonic anhydrase 2 = Carbonic anhydrase 2 (Homo sapiens, UniProt P00918); assay: Inhibition of CA2 (unknown origin)
[2] = target: HTH-type transcriptional regulator EthR (Mycobacterium tuberculosis, UniProt P9WMC1); assay: Inhibition of Mycobacterium tuberculosis EthR
Chain of HTH-type transcriptional regulator EthR (P9WMC1 whole entry): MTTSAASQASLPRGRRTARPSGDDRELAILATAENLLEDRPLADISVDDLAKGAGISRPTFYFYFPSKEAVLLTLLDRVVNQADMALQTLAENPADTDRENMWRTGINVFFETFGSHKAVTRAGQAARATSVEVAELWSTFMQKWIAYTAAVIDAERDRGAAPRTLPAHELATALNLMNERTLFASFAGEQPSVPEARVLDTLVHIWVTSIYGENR

Homo sapiens = species: Homo sapiens; assay: Inhibition of human recombinant 14-3-3 protein at 300 uM after 8 hrs
Chitinase B = target: T2, Chitinase B (Serratia marcescens, UniProt P11797); assay: Inhibition of Serratia marcescens 6x-His-tagged ChiB after 20 hrs by LCMS-SIR analysis
T2 sequence (P11797 whole entry): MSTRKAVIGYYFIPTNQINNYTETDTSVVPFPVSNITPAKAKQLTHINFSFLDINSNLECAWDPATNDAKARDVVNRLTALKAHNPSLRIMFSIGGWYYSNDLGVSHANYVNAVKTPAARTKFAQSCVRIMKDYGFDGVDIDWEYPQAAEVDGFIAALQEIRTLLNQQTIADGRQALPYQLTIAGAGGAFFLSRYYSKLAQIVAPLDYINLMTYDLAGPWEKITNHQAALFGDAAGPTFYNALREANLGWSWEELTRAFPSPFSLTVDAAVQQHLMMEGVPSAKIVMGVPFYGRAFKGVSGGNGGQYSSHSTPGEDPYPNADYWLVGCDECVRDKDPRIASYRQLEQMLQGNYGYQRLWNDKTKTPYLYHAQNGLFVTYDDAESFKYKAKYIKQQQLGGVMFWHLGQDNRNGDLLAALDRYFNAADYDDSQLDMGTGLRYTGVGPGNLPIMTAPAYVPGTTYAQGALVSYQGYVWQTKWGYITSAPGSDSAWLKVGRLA

Nc1ncnc2c1ncn2CCCCn1cc(CCCCC[C@@H]2SC[C@@H]3NC(=O)N[C@@H]32)nn1
Ki [1]: 0.66 µM

CC[N+](C)(CC)CCC[n+]1c(-c2ccccc2)c2cc(N)ccc2c2ccccc21
Kd (Acetylcholinesterase): 1.1 µM

CCOC(=O)c1cccc(CSCc2ccc(S(N)(=O)=O)cc2)c1
IC50 (Carbonic anhydrase 2): 0.059 µM

O=C(Cn1cc(CNS(=O)(=O)c2ccc(I)cc2)nn1)N1CCC(c2nc(-c3cccs3)no2)CC1
IC50 [2]: 0.58 µM

C=CC(C)(C)OC[C@H]1O[C@H](O[C@@H]2C3=C([C@H](C)CNC(=O)[C@H]4CO4)C[C@H](O)[C@]3(C)/C=C3/[C@@H](COC)CC[C@@]3(C)[C@@H](C)[C@H]2O)[C@H](O)[C@@H](O)[C@@H]1O
inhibition (Homo sapiens): 37%

[H]/N=C(/NCCC[C@H](NC(=O)Cn1nncc1CO/N=C/c1ccnc2ccccc12)C(=O)N(Cc1ccccc1)Cc1ccccc1)NC(=O)NC
IC50 (Chitinase B): 0.022 µM
